Consider three molecules from ChEMBL document CHEMBL5528008, “Design and synthesis of the first PARP-1 and proteasome dual inhibitors to treat breast cancer” (Eur J Med Chem, 2024).

Test [1] deals with T1, Poly [ADP-ribose] polymerase 1 (Homo sapiens, UniProt P09874). Kind of test: Inhibition of PARP-1 (unknown origin) assessed as fold change in inhibition using Femto-ECL as substrate preincubated for 2.7 hrs followed by substrate addition by chemiluminescence assay.
In test [2] the test system is BT-549. Kind of test: Cytotoxicity against human BT-549 cells assessed as inhibition of cell growth incubated for 72 hrs by MTT assay. The format is functional, cell-based. Particulars: BT-549, 72 h.
For a further test, the system named is MCF7. Put plainly: Cytotoxicity against human MCF7 cells assessed as inhibition of cell growth incubated for 72 hrs by MTT assay. The class given is functional, cell-based. Conditions: MCF7, 72 h.
The next test has as its system MDA-MB-231. Put plainly: Cytotoxicity against human MDA-MB-231 cells assessed as inhibition of cell growth incubated for 72 hrs by MTT assay. The format is functional, cell-based. Particulars: MDA-MB-231, 72 h. (Tetrazolium assays rely on reduction of a dye to a coloured formazan, in cell work by metabolically active cells.)
Test [3] relates to BT-549. Put plainly: Induction of DNA damage in human BT-549 cells assessed as upregulation of gamma-H2AX level at 0.5 uM incubated for 48 hrs by immunoblotting analysis. The class given is functional, cell-based.
Test [4] relates to BT-549. Put plainly: Induction of DNA damage in human BT-549 cells assessed as upregulation of gamma-H2AX level at 1 uM incubated for 48 hrs by immunoblotting analysis. The class given is functional, cell-based.
Test [5] deals with BT-549. Put plainly: Synergistic antiproliferative activity against human BT-549 cells assessed as synergistic score in presence of Ixazomib. The format is functional.
Test [6] addresses T1, Poly [ADP-ribose] polymerase 1. Kind of test: Inhibition of PARP-1 (unknown origin) using Femto-ECL as substrate preincubated for 2.7 hrs followed by substrate addition by chemiluminescence assay.
The next test concerns the target 20S proteasome. Kind of test: Inhibition of 20S proteasome (unknown origin) using […] as substrate. The format is protein-complex assay, Homo sapiens.
In test [7] the target is T1, Poly [ADP-ribose] polymerase 1. Put plainly: Inhibition of PARP-1 in human BT-549 cells assessed as downregulation of FANCD2 mRNA expression incubated for 48 hrs by RT-qPCR analysis. The format is cell-based.
Test [8] has the same target. Kind of test: Inhibition of PARP-1 in human BT-549 cells assessed as downregulation of BRCA1 mRNA expression incubated for 48 hrs by RT-qPCR analysis. The class given is cell-based. (Quantitative PCR measures a nucleic acid by following its amplification.)
The target is the same in test [9]. Put plainly: Inhibition of PARP-1 in human BT-549 cells assessed as downregulation of BRCA2 mRNA expression incubated for 48 hrs by RT-qPCR analysis. The format is cell-based.
The target is the same in test [10]. Kind of test: Inhibition of PARP-1 in human BT-549 cells assessed as downregulation of RAD51 mRNA expression incubated for 48 hrs by RT-qPCR analysis. The format is cell-based.
Test [11] has as its system BT-549. Put plainly: Induction of DNA damage in human BT-549 cells assessed as upregulation of gamma-H2AX level at 0.05 uM incubated for 48 hrs by immunoblotting analysis. The format is functional, cell-based.
Test [12] concerns the target T1, Poly [ADP-ribose] polymerase 1. Kind of test: Inhibition of PARP-1 in human BT-549 cells assessed as downregulation of P-ATM expression at 0.05 uM incubated for 48 hrs by immunoblotting analysis. The class given is cell-based. Background: In western blotting, separated proteins are transferred to a membrane and probed.
The target is the same in test [13]. Put plainly: Inhibition of PARP-1 in human BT-549 cells assessed as downregulation of BRCA1 expression at 0.05 uM incubated for 48 hrs by immunoblotting analysis. The class given is cell-based.
Test [14] shares this target. Kind of test: Inhibition of PARP-1 in human BT-549 cells assessed as downregulation of RAD51 expression at 0.05 uM incubated for 48 hrs by immunoblotting analysis. The class given is cell-based.
Test [15] has the same target. Put plainly: Inhibition of PARP-1 in human BT-549 cells assessed as downregulation of P-ATM expression at 0.5 uM incubated for 48 hrs by immunoblotting analysis. The format is cell-based.
Test [16] shares this target. Kind of test: Inhibition of PARP-1 in human BT-549 cells assessed as downregulation of BRCA1 expression at 0.5 uM incubated for 48 hrs by immunoblotting analysis. The format is cell-based.
For test [17] the target is unchanged. Kind of test: Inhibition of PARP-1 in human BT-549 cells assessed as downregulation of RAD51 expression at 0.5 uM incubated for 48 hrs by immunoblotting analysis. The class given is cell-based.
In test [18] the test system is BT-549. Kind of test: Induction of DNA damage in human BT-549 cells assessed as increase in gamma-H2AX localization in nucleus at 0.125 uM incubated for 48 hrs by fluorescence confocal microscopic analysis. The format is functional, cell-based.
The test system of test [19] is BT-549. Kind of test: Induction of DNA damage in human BT-549 cells assessed as decrease in BRCA1 localization in nucleus at 0.125 uM incubated for 48 hrs by fluorescence confocal microscopic analysis. The format is functional, cell-based.
The test system of test [20] is BT-549. Put plainly: Induction of DNA damage in human BT-549 cells assessed as decrease in ubiquitin localization in nucleus at 0.125 uM incubated for 48 hrs by fluorescence confocal microscopic analysis. The format is functional, cell-based.
The test system of test [21] is BT-549. Put plainly: Induction of DNA damage in human BT-549 cells assessed as increase in polyubiquitination at 0.125 uM incubated for 48 hrs by fluorescence confocal microscopic analysis. The format is functional, cell-based.
Test [22] concerns BT-549. Kind of test: Induction of DNA damage in human BT-549 cells assessed as decrease in polyubiquitination in nucleus at 0.125 uM incubated for 48 hrs by fluorescence confocal microscopic analysis. The format is functional, cell-based.
The test system of test [23] is BT-549. Put plainly: Induction in cell cycle arrest in human BT-549 cells assessed as downregulation of Cyclin A2 expression at 0.05 uM incubated for 48 hrs by Western blotting analysis. The class given is functional, cell-based.
The test system of test [24] is BT-549. Kind of test: Induction in cell cycle arrest in human BT-549 cells assessed as downregulation of Cyclin A2 expression at 0.5 uM incubated for 48 hrs by Western blotting analysis. The format is functional, cell-based.
Test [25] has as its system BT-549. Kind of test: Induction in cell cycle arrest in human BT-549 cells assessed as downregulation of CDK1 expression at 0.05 uM incubated for 48 hrs by Western blotting analysis. The format is functional, cell-based.
The subject of test [26] is BT-549. Kind of test: Induction in cell cycle arrest in human BT-549 cells assessed as downregulation of CDK1 expression at 0.5 uM incubated for 48 hrs by Western blotting analysis. The format is functional, cell-based.
Test [27] deals with BT-549. Put plainly: Induction in cell cycle arrest in human BT-549 cells assessed as upregulation of p21 expression at 0.05 uM incubated for 48 hrs by Western blotting analysis. The format is functional, cell-based.
Test [28] deals with BT-549. Kind of test: Induction in cell cycle arrest in human BT-549 cells assessed as upregulation of p21 expression at 0.5 uM incubated for 48 hrs by Western blotting analysis. The class given is functional, cell-based.
Test [29] has as its system BT-549. Kind of test: Induction of apoptosis in human BT-549 cells assessed as upregulation of cleaved caspase-3 expression incubated for 48 hrs by Western blotting analysis. The class given is functional, cell-based.
For test [30], the system named is BT-549. Kind of test: Induction of apoptosis in human BT-549 cells assessed as upregulation of cleaved PARP expression incubated for 48 hrs by Western blotting analysis. The format is functional, cell-based.
Test [31] deals with BT-549. Kind of test: Induction of apoptosis in human BT-549 cells assessed as increase in early apoptotic cells incubated for 48 hrs by Annexin V-FITC/PI staining based flow cytometric analysis. The class given is functional, cell-based.
In test [32] the test system is BT-549. Put plainly: Induction of apoptosis in human BT-549 cells assessed as increase in late apoptotic cells incubated for 48 hrs by Annexin V-FITC/PI staining based flow cytometric analysis. The format is functional, cell-based.
Test [33] deals with BT-549. Kind of test: Inhibition of colony formation in human BT-549 cells assessed as reduction in colony number incubated for 14 days by crystal violet staining based analysis. Particulars: time 14.0 day. The format is functional, cell-based.
For test [34], the system named is BT-549. Put plainly: Inhibition of colony formation in human BT-549 cells assessed as reduction in colony size incubated for 14 days by crystal violet staining based analysis. The format is functional, cell-based. Conditions: time 14.0 day.

The source made the active and inactive calls. The rule behind the calls is not given here.

T1 sequence (P09874 whole entry): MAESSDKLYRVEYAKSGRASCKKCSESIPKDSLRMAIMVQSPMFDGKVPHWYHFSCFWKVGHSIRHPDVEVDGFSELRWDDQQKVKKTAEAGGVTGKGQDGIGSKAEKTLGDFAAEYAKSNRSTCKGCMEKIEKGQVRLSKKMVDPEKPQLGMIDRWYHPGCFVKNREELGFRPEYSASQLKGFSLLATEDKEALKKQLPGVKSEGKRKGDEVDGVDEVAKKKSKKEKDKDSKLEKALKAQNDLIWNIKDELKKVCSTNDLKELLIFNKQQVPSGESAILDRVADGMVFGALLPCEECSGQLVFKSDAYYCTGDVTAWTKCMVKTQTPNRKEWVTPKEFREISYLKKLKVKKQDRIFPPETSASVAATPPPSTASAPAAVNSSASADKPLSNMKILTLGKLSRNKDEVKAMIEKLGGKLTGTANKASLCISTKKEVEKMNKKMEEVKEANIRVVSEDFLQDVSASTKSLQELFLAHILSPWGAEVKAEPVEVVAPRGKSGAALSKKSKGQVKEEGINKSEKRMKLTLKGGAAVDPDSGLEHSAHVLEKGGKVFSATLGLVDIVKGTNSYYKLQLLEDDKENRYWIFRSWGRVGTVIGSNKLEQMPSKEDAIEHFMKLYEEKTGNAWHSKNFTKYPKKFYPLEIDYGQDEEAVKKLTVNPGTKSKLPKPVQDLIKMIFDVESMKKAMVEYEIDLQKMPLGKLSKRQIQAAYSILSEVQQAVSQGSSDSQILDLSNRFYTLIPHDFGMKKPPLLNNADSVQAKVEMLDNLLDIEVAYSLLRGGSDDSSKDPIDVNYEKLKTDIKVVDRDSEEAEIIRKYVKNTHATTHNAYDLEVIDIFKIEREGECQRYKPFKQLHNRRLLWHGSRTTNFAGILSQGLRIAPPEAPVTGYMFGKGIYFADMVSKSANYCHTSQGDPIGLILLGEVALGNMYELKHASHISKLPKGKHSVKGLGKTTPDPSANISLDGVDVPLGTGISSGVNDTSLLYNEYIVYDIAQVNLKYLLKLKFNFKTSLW

As for `CC(C)C[C@H](NC(=O)[C@H](CC(C)C)NC(=O)c1cc(Cc2nn(C)c(=O)c3ccccc23)ccc1F)B1O[C@@H]2C[C@@H]3C[C@@H](C3(C)C)[C@]2(C)O1`, the fold change (FC) in test [1] was 100.
Consider `O=C(c1cc(Cc2n[nH]c(=O)c3ccccc23)ccc1F)N1CCN(C(=O)C2CC2)CC1` [OLAPARIB], for which the concentration for half-maximal inhibition (IC50) in the test on BT-549 [2] was 6610 nM; with MCF7, 10600 nM; in the test with MDA-MB-231, greater than 30000 nM. The result in the test on BT-549 [3] and in the test on BT-549 [4] was Active. The Activity in the test with BT-549 [5] is on record as 12.407.
Turning to `CSCC[C@H](NC(=O)c1cc(Cc2n[nH]c(=O)c3ccccc23)ccc1F)C(=O)N[C@@H](CC(C)C)B1O[C@@H]2C[C@@H]3C[C@@H](C3(C)C)[C@]2(C)O1`, the half-inhibitory concentration (IC50) in [6] is 102 nM; against 20S proteasome, 82.3 nM; in the test on BT-549 [2] it was 12.4 nM; in the test with MCF7 it was 60.1 nM; with MDA-MB-231, 67.6 nM. The inhibition result (in test [7]; in test [8]; in test [9]; in [10]; in the test with BT-549 [33]; in the test with BT-549 [34]) was “Dose-Dependent Effect” each time. Further, the outcome in the test on BT-549 [11], with BT-549 [3], in the test with BT-549 [18], in the test on BT-549 [19], in the test on BT-549 [20] and in the test on BT-549 [21] was Active. Also, the outcome in the test on BT-549 [22], in the test on BT-549 [23], in the test with BT-549 [24], in the test on BT-549 [25], in the test on BT-549 [26] and in the test on BT-549 [27] was Active. Besides, the result in the test on BT-549 [28] was Active. The inhibition entry in test [12], in test [13], in [14], in test [15], in test [16] and in test [17] was “Active” throughout. For the same molecule, the Activity entry with BT-549 [29], with BT-549 [30], with BT-549 [31] and in the test on BT-549 [32] was “Dose-Dependent Effect” each time.

For orientation: IC50 means the concentration at which inhibition is half-maximal.
